# Test results: patent US20060276340A1, “HERBICIDE COMPOSITION COMPRISING PYRIBAMBENZ-PROPYL OR PYRIBAMBENZ-ISOPROPYL” (Zhejiang Chem-Tech Group Co., Ltd., priority 2003, published 2006)
# Experiments:
# Format in all cases: in vivo
# Galium aparine [1] = test: greenhouse pot test, post-emergence early stage treatment
# Experimental: (§1) The test soil is a formulated sandy loam soil. 9.5 centimeter diameter pots are used for herbicidal activity test.
# (§2) The pots for post-emergence treatment are placed into a greenhouse and incubated for 7 to 9 days, and then subjected to leave treatment by spraying. The preparation liquid for the treatment prepared by mixing individual single-herbicides was diluted with water to the desired dosage.
# (§3) The treated pots stood for one day, then were placed in a greenhouse and watered regularly. The herbicidal activities of the compositions were evaluated by visual examination after incubating for 14 to 21 days.
# (§4) The herbicidal activities of the compositions were evaluated by plant symptoms such as stunting, deformity, chlorosis, and whitening. 0 represents that the compositions have no herbicidal effect or have safety to crops. 100 represents that the weeds or crops were completely killed.
# Cerastium arvense = test: as above
# Experimental: as §1, §2, §3, §4
# Alopercurus japonicus [2] = test: as above; settings: ALOJA
# Experimental: as §1, §2, §3, §4
# Poa annua [3] = test: as above
# Experimental: as §1, §2, §3, §4
# Veronica didyma = test: greenhouse pot test, post-emergence treatment; settings: VERDI
# Experimental: as §1, §2, §3, §4
# Galium aparine [4] = test: greenhouse pot test, post-emergence treatment; settings: GALAP
# Experimental: as §1, §2, §3, §4
# Alopercurus japonicus [5] = test: greenhouse pot test, post-emergence treatment; settings: ALOJA
# Experimental: as §1, §2, §3, §4
# Poa annua [6] = test: greenhouse pot test, post-emergence treatment; settings: POAAN
# Experimental: as §1, §2, §3, §4
# Beckmannia syzigachne [7] = test: greenhouse pot test, post-emergence early stage treatment; settings: BECSY 2˜3 leaves
# Experimental: as §1, §2, §3, §4
# weeds in rape field = test: weed control in rape field, descriptive statements
# Polypogon fugax = test: greenhouse pot test, Tables 1-2; settings: POLFU 3-4 leaves
# Experimental: as §1
# (§5) The soil in the pot for the pre-emergence test was sprayed one day after planting. The preparation liquid for the treatment prepared by mixing individual single-herbicides was diluted with water to the desired dosage.
# as §2, §3, §4
# Beckmannia syzigachne [8] = test: greenhouse pot test, Tables 1-2; settings: BECSY 2 leaves
# Experimental: as §1, §5, §2, §3, §4
# Alopecurus aequalis = test: greenhouse pot test, Tables 1-2
# Experimental: as §1, §5, §2, §3, §4
# Poa annua [9] = test: greenhouse pot test, Tables 1-2; settings: POAAN 3 leaves
# Experimental: as §1, §5, §2, §3, §4
# Digitrria sanguinalis = test: greenhouse pot test, Tables 1-2; settings: DIGSA 3 leaves
# Experimental: as §1, §5, §2, §3, §4
smiles,measurement,setting,value
CCOCN(C(=O)CCl)c1c(C)cccc1CC [acetochlor],visual evaluation of weed effects,"Galium aparine [1]; GALAP, 150 g/ha",40%
same,visual evaluation of weed effects,"Galium aparine [1]; GALAP, 300 g/ha",50%
same,visual evaluation of weed effects,"Galium aparine [1]; GALAP, 450 g/ha",60%
same,visual evaluation of weed effects,"Galium aparine [1]; GALAP, 600 g/ha",70%
same,visual evaluation of weed effects,"Cerastium arvense; CERAR, 150 g/ha",70%
same,visual evaluation of weed effects,"Cerastium arvense; CERAR, 300 g/ha",85%
same,visual evaluation of weed effects,"Cerastium arvense; CERAR, 450 g/ha",85%
same,visual evaluation of weed effects,"Cerastium arvense; CERAR, 600 g/ha",85%
same,visual evaluation of weed effects,Alopercurus japonicus [2]; 150 g/ha,60%
same,visual evaluation of weed effects,Alopercurus japonicus [2]; 300 g/ha,90%
same,visual evaluation of weed effects,Alopercurus japonicus [2]; 450 g/ha,95%
same,visual evaluation of weed effects,Alopercurus japonicus [2]; 600 g/ha,95%
same,visual evaluation of weed effects,"Poa annua [3]; POAAN, 150 g/ha",70%
same,visual evaluation of weed effects,"Poa annua [3]; POAAN, 300 g/ha",90%
same,visual evaluation of weed effects,"Poa annua [3]; POAAN, 450 g/ha",95%
same,visual evaluation of weed effects,"Poa annua [3]; POAAN, 600 g/ha",95%
O=C(O)Cn1c(=O)sc2cccc(Cl)c21 [benazolin],visual evaluation of weed effects,Veronica didyma; 75 g/ha,60%
same,visual evaluation of weed effects,Veronica didyma; 150 g/ha,90%
same,visual evaluation of weed effects,Veronica didyma; 225 g/ha,98%
same,visual evaluation of weed effects,Veronica didyma; 300 g/ha,100%
same,visual evaluation of weed effects,Galium aparine [4]; 75 g/ha,70%
same,visual evaluation of weed effects,Galium aparine [4]; 150 g/ha,90%
same,visual evaluation of weed effects,Galium aparine [4]; 225 g/ha,100%
same,visual evaluation of weed effects,Galium aparine [4]; 300 g/ha,100%
same,visual evaluation of weed effects,Alopercurus japonicus [5]; 75 g/ha,0%
same,visual evaluation of weed effects,Alopercurus japonicus [5]; 150 g/ha,0%
same,visual evaluation of weed effects,Alopercurus japonicus [5]; 225 g/ha,0%
same,visual evaluation of weed effects,Alopercurus japonicus [5]; 300 g/ha,0%
same,visual evaluation of weed effects,Poa annua [6]; 75 g/ha,0%
same,visual evaluation of weed effects,Poa annua [6]; 150 g/ha,0%
same,visual evaluation of weed effects,Poa annua [6]; 225 g/ha,0%
same,visual evaluation of weed effects,Poa annua [6]; 300 g/ha,0%
CCOC(=O)C(C)Oc1ccc(Oc2cnc3cc(Cl)ccc3n2)cc1 (centres unmarked) [quizalofop-ethyl],visual evaluation of weed effects,"Galium aparine [1]; GALAP 7˜8 leaves, quizalofop-ethyl 6 g/ha",0%
same,visual evaluation of weed effects,"Galium aparine [1]; GALAP 7˜8 leaves, quizalofop-ethyl 9 g/ha",0%
same,visual evaluation of weed effects,"Galium aparine [1]; GALAP 7˜8 leaves, quizalofop-ethyl 12 g/ha",0%
same,visual evaluation of weed effects,"Galium aparine [1]; GALAP 7˜8 leaves, quizalofop-ethyl 15 g/ha",0%
same,visual evaluation of weed effects,"Cerastium arvense; CERAR 3˜4 leaves, quizalofop-ethyl 6 g/ha",0%
same,visual evaluation of weed effects,"Cerastium arvense; CERAR 3˜4 leaves, quizalofop-ethyl 9 g/ha",0%
same,visual evaluation of weed effects,"Cerastium arvense; CERAR 3˜4 leaves, quizalofop-ethyl 12 g/ha",0%
same,visual evaluation of weed effects,"Cerastium arvense; CERAR 3˜4 leaves, quizalofop-ethyl 15 g/ha",0%
same,visual evaluation of weed effects,Beckmannia syzigachne [7]; quizalofop-ethyl 6 g/ha,98%
same,visual evaluation of weed effects,Beckmannia syzigachne [7]; quizalofop-ethyl 9 g/ha,100%
same,visual evaluation of weed effects,Beckmannia syzigachne [7]; quizalofop-ethyl 12 g/ha,100%
same,visual evaluation of weed effects,Beckmannia syzigachne [7]; quizalofop-ethyl 15 g/ha,100%
same,visual evaluation of weed effects,"Poa annua [3]; POAAN 2˜3 leaves, quizalofop-ethyl 6 g/ha",0%
same,visual evaluation of weed effects,"Poa annua [3]; POAAN 2˜3 leaves, quizalofop-ethyl 9 g/ha",0%
same,visual evaluation of weed effects,"Poa annua [3]; POAAN 2˜3 leaves, quizalofop-ethyl 12 g/ha",50%
same,visual evaluation of weed effects,"Poa annua [3]; POAAN 2˜3 leaves, quizalofop-ethyl 15 g/ha",60%
same,weed control,weeds in rape field; Poa annua,weak activity
same,weed control,"weeds in rape field; most of grasses, even herbicide-resistant sclerochloa kengiana and Beckmannia syzigachne",excellent control
same,visual evaluation of weed effects,Polypogon fugax; 6 g/ha,30%
same,visual evaluation of weed effects,Polypogon fugax; 9 g/ha,100%
same,visual evaluation of weed effects,Polypogon fugax; 12 g/ha,100%
same,visual evaluation of weed effects,Polypogon fugax; 15 g/ha,100%
same,visual evaluation of weed effects,Beckmannia syzigachne [8]; 6 g/ha,95%
same,visual evaluation of weed effects,Beckmannia syzigachne [8]; 9 g/ha,95%
same,visual evaluation of weed effects,Beckmannia syzigachne [8]; 12 g/ha,98%
same,visual evaluation of weed effects,Beckmannia syzigachne [8]; 15 g/ha,98%
same,visual evaluation of weed effects,"Alopecurus aequalis; ALOAE 0 leaf, 6 g/ha",85%
same,visual evaluation of weed effects,"Alopecurus aequalis; ALOAE 0 leaf, 9 g/ha",85%
same,visual evaluation of weed effects,"Alopecurus aequalis; ALOAE 0 leaf, 12 g/ha",85%
same,visual evaluation of weed effects,"Alopecurus aequalis; ALOAE 0 leaf, 15 g/ha",85%
same,visual evaluation of weed effects,"Alopecurus aequalis; ALOAE 3 leaves, 6 g/ha",98%
same,visual evaluation of weed effects,"Alopecurus aequalis; ALOAE 3 leaves, 9 g/ha",100%
same,visual evaluation of weed effects,"Alopecurus aequalis; ALOAE 3 leaves, 12 g/ha",100%
same,visual evaluation of weed effects,"Alopecurus aequalis; ALOAE 3 leaves, 15 g/ha",100%
same,visual evaluation of weed effects,Poa annua [9]; 6 g/ha,0%
same,visual evaluation of weed effects,Poa annua [9]; 9 g/ha,10%
same,visual evaluation of weed effects,Poa annua [9]; 12 g/ha,10%
same,visual evaluation of weed effects,Poa annua [9]; 15 g/ha,10%
same,visual evaluation of weed effects,Digitrria sanguinalis; 6 g/ha,100%
same,visual evaluation of weed effects,Digitrria sanguinalis; 9 g/ha,100%
same,visual evaluation of weed effects,Digitrria sanguinalis; 12 g/ha,100%
same,visual evaluation of weed effects,Digitrria sanguinalis; 15 g/ha,100%
